Source: PubChem BioAssay AID1963844 (Molecular Pharmacology Branch, DTP, NCI, 2024)

System: 422866-222-R5-J1-PDC complex spheroid viability
Experiment: Anticancer human tumor 422866-222-R5-J1-PDC patient-derived pancreatic adenocarcinoma cell line growth inhibition [POLQ]
Conditions: for IC50: curve of first compound; for viability, T/C: stronger effect = lower value
In short: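 PDC + HUVEC + MSC complex spheroids; POLQ inhibitors ± partner drugs; top conc. at/near clinical Cmax, else 10 microM (SN-38 1 microM), half-log dilutions; 37 degrees C, 5% CO2.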

[1] = second compound 0.0316 µM, first compound 0.0316 µM
[2] = second compound 0.0316 µM, first compound 0.1 µM
[3] = second compound 0.0316 µM, first compound 0.316 µM
[4] = second compound 0.0316 µM, first compound 1 µM
[5] = second compound 0.0316 µM, first compound 3.16 µM
[6] = second compound 0.0316 µM, first compound 10 µM
[7] = second compound 0.1 µM, first compound 0.0316 µM
[8] = second compound 0.1 µM, first compound 0.1 µM
[9] = second compound 0.1 µM, first compound 0.316 µM
[10] = second compound 0.1 µM, first compound 1 µM
[11] = second compound 0.1 µM, first compound 3.16 µM
[12] = second compound 0.1 µM, first compound 10 µM
[13] = second compound 0.316 µM, first compound 0.0316 µM
[14] = second compound 0.316 µM, first compound 0.1 µM
[15] = second compound 0.316 µM, first compound 0.316 µM
[16] = second compound 0.316 µM, first compound 1 µM
[17] = second compound 0.316 µM, first compound 3.16 µM
[18] = second compound 0.316 µM, first compound 10 µM
[19] = second compound 1 µM, first compound 0.0316 µM
[20] = second compound 1 µM, first compound 0.1 µM
[21] = second compound 1 µM, first compound 0.316 µM
[22] = second compound 1 µM, first compound 1 µM
[23] = second compound 1 µM, first compound 3.16 µM
[24] = second compound 1 µM, first compound 10 µM
[25] = second compound 3.16 µM, first compound 0.0316 µM
[26] = second compound 3.16 µM, first compound 0.1 µM
[27] = second compound 3.16 µM, first compound 0.316 µM
[28] = second compound 3.16 µM, first compound 1 µM
[29] = second compound 3.16 µM, first compound 3.16 µM
[30] = second compound 3.16 µM, first compound 10 µM
[31] = second compound 10 µM, first compound 0.0316 µM
[32] = second compound 10 µM, first compound 0.1 µM
[33] = second compound 10 µM, first compound 0.316 µM
[34] = second compound 10 µM, first compound 1 µM
[35] = second compound 10 µM, first compound 3.16 µM
[36] = second compound 10 µM, first compound 10 µM
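Note: spheroids exposed to compounds for one week before readout.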
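Throughout, for viability, T/C: percent of DMSO vehicle wells luminescence so 100% = untreated viability.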

COc1cc(C2c3cc4c(cc3C(OC3OC5COC(C)OC5C(O)C3O)C3COC(=O)C23)OCO4)cc(OC)c1O (stereo not drawn) + Cc1cccc(N(C)C(=O)C2C(O)CCN2c2nc(C)cc(C(F)(F)F)c2C#N)c1
IC50 (second compound 0.0316 µM): 1230 nM
IC50 (second compound 0.1 µM): 1650 nM
IC50 (second compound 0.316 µM): 1360 nM
IC50 (second compound 1 µM): 735 nM
IC50 (second compound 3.16 µM): 714 nM
IC50 (second compound 10 µM): 876 nM
viability, T/C [1]: 96.8%
viability, T/C [2]: 84.3%
viability, T/C [3]: 69%
viability, T/C [4]: 53.5%
viability, T/C [5]: 37.9%
viability, T/C [6]: 33.2%
viability, T/C [7]: 101%
viability, T/C [8]: 92.9%
viability, T/C [9]: 63.3%
viability, T/C [10]: 58.6%
viability, T/C [11]: 44.2%
viability, T/C [12]: 31.8%
viability, T/C [13]: 110%
viability, T/C [14]: 92.7%
viability, T/C [15]: 68.8%
viability, T/C [16]: 50.6%
viability, T/C [17]: 47.7%
viability, T/C [18]: 35.8%
viability, T/C [19]: 105%
viability, T/C [20]: 94.7%
viability, T/C [21]: 61.8%
viability, T/C [22]: 46.5%
viability, T/C [23]: 38.5%
viability, T/C [24]: 29.7%
viability, T/C [25]: 103%
viability, T/C [26]: 88.8%
viability, T/C [27]: 56.6%
viability, T/C [28]: 49.6%
viability, T/C [29]: 40.1%
viability, T/C [30]: 33.7%
viability, T/C [31]: 91.5%
viability, T/C [32]: 77.1%
viability, T/C [33]: 56%
viability, T/C [34]: 49.9%
viability, T/C [35]: 45.1%
viability, T/C [36]: 37%

Nc1ccn(C2OC(CO)C(O)C2(F)F)c(=O)n1 (stereo not drawn) + Cc1cccc(N(C)C(=O)C2C(O)CCN2c2nc(C)cc(C(F)(F)F)c2C#N)c1
IC50 (second compound 0.0316 µM): 98.9 nM
IC50 (second compound 0.1 µM): 76.6 nM
IC50 (second compound 0.316 µM): 82.4 nM
IC50 (second compound 1 µM): 119 nM
IC50 (second compound 3.16 µM): 154 nM
IC50 (second compound 10 µM): 120 nM
viability, T/C [1]: 77.9%
viability, T/C [2]: 50.4%
viability, T/C [3]: 40.4%
viability, T/C [4]: 36.1%
viability, T/C [5]: 36.1%
viability, T/C [6]: 42.9%
viability, T/C [7]: 68.8%
viability, T/C [8]: 43.2%
viability, T/C [9]: 40.5%
viability, T/C [10]: 38.6%
viability, T/C [11]: 35.5%
viability, T/C [12]: 35.4%
viability, T/C [13]: 69%
viability, T/C [14]: 45.3%
viability, T/C [15]: 40.3%
viability, T/C [16]: 38.1%
viability, T/C [17]: 35%
viability, T/C [18]: 34.8%
viability, T/C [19]: 68.7%
viability, T/C [20]: 51.6%
viability, T/C [21]: 41.4%
viability, T/C [22]: 37.3%
viability, T/C [23]: 38.6%
viability, T/C [24]: 40.2%
viability, T/C [25]: 83.7%
viability, T/C [26]: 54.2%
viability, T/C [27]: 41.9%
viability, T/C [28]: 43.2%
viability, T/C [29]: 37.8%
viability, T/C [30]: 38%
viability, T/C [31]: 68%
viability, T/C [32]: 51.9%
viability, T/C [33]: 45.2%
viability, T/C [34]: 39.9%
viability, T/C [35]: 38.9%
viability, T/C [36]: 48.5%

O=C(c1cc(Cc2n[nH]c(=O)c3ccccc23)ccc1F)N1CCN(C(=O)C2CC2)CC1 + Cc1cccc(N(C)C(=O)C2C(O)CCN2c2nc(C)cc(C(F)(F)F)c2C#N)c1
IC50 (second compound 0.0316 µM): > 10000 nM
IC50 (second compound 0.1 µM): > 10000 nM
IC50 (second compound 0.316 µM): > 10000 nM
IC50 (second compound 1 µM): > 10000 nM
IC50 (second compound 3.16 µM): > 10000 nM
IC50 (second compound 10 µM): > 10000 nM
viability, T/C [1]: 87.5%
viability, T/C [2]: 103%
viability, T/C [3]: 89.9%
viability, T/C [4]: 92.9%
viability, T/C [5]: 89.7%
viability, T/C [6]: 68.2%
viability, T/C [7]: 95.3%
viability, T/C [8]: 104%
viability, T/C [9]: 99%
viability, T/C [10]: 87.4%
viability, T/C [11]: 87.5%
viability, T/C [12]: 81.7%
viability, T/C [13]: 117%
viability, T/C [14]: 95.9%
viability, T/C [15]: 107%
viability, T/C [16]: 97.6%
viability, T/C [17]: 97.5%
viability, T/C [18]: 67.3%
viability, T/C [19]: 96.2%
viability, T/C [20]: 94.4%
viability, T/C [21]: 86%
viability, T/C [22]: 90.5%
viability, T/C [23]: 82.2%
viability, T/C [24]: 68%
viability, T/C [25]: 87.3%
viability, T/C [26]: 104%
viability, T/C [27]: 104%
viability, T/C [28]: 107%
viability, T/C [29]: 86.1%
viability, T/C [30]: 68%
viability, T/C [31]: 104%
viability, T/C [32]: 107%
viability, T/C [33]: 97.7%
viability, T/C [34]: 89.8%
viability, T/C [35]: 80.3%
viability, T/C [36]: 76.4%

O=c1[nH]cc(F)c(=O)[nH]1 + Cc1cccc(N(C)C(=O)C2C(O)CCN2c2nc(C)cc(C(F)(F)F)c2C#N)c1
IC50 (second compound 0.0316 µM): > 10000 nM
IC50 (second compound 0.1 µM): > 10000 nM
IC50 (second compound 0.316 µM): > 10000 nM
IC50 (second compound 1 µM): > 10000 nM
IC50 (second compound 3.16 µM): > 10000 nM
IC50 (second compound 10 µM): > 10000 nM
viability, T/C [1]: 117%
viability, T/C [2]: 98.5%
viability, T/C [3]: 102%
viability, T/C [4]: 88.2%
viability, T/C [5]: 82.1%
viability, T/C [6]: 74.9%
viability, T/C [7]: 111%
viability, T/C [8]: 92.2%
viability, T/C [9]: 92.3%
viability, T/C [10]: 90.8%
viability, T/C [11]: 66.9%
viability, T/C [12]: 74.3%
viability, T/C [13]: 118%
viability, T/C [14]: 109%
viability, T/C [15]: 99.9%
viability, T/C [16]: 84.3%
viability, T/C [17]: 81.1%
viability, T/C [18]: 78.2%
viability, T/C [19]: 111%
viability, T/C [20]: 96.6%
viability, T/C [21]: 97.9%
viability, T/C [22]: 101%
viability, T/C [23]: 84.8%
viability, T/C [24]: 83.2%
viability, T/C [25]: 107%
viability, T/C [26]: 98.6%
viability, T/C [27]: 86.3%
viability, T/C [28]: 83%
viability, T/C [29]: 83.8%
viability, T/C [30]: 87.6%
viability, T/C [31]: 90.6%
viability, T/C [32]: 88.8%
viability, T/C [33]: 99.7%
viability, T/C [34]: 80.6%
viability, T/C [35]: 86.7%
viability, T/C [36]: 67.8%
